Reference: paper PMC7524867, “Identification of Novel Inhibitors of a Plant Group A Protein Phosphatase Type 2C Using a Combined In Silico and Biochemical Approach” (Frontiers in Plant Science, 2020)
Blank lines part the entries; values can stand above or below the compound they belong to.

Columns and labels:
Format in all cases: biochemical
ABI2 = target: T1, ABI2 (Arabidopsis thaliana, UniProt O04719); assay: Ser/Thr phosphatase assay at […] compound; weaker than on ABI1
T1 construct: recombinant His- or GST-tagged ABI2
T1 sequence (O04719 1-423): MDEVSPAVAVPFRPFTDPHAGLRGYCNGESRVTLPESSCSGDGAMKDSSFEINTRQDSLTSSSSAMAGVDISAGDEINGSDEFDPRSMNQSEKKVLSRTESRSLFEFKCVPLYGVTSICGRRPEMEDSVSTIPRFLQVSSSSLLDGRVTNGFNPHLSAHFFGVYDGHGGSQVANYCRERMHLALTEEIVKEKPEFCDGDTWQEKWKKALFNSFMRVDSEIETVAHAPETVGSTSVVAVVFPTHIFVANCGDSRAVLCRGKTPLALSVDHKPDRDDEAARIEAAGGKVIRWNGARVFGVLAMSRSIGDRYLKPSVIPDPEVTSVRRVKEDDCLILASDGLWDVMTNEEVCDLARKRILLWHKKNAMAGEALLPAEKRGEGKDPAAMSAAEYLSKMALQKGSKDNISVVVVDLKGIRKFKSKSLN

ABI1 [1] = target: T2, ABI1 (Arabidopsis thaliana, UniProt P49597); assay: Ser/Thr phosphatase assay (Promega) with phosphopeptide substrate, six-concentration IC50; parameters: recombinant His- or GST-tagged ABI1
T2 sequence (P49597 1-434): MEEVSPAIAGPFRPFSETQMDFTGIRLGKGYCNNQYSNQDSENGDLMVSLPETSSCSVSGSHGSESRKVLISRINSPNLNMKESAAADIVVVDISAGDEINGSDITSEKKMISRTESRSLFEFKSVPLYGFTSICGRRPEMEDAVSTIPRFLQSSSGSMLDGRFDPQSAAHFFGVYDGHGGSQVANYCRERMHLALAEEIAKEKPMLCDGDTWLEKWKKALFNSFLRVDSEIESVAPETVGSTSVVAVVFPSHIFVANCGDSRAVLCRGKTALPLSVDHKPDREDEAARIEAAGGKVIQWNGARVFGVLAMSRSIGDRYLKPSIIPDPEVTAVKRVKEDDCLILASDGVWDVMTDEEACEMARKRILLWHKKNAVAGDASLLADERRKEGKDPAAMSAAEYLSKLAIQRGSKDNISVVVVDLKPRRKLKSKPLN

ABI1 [2] = target: T2, ABI1; assay: Ser/Thr phosphatase assay, single dose […]; parameters: recombinant His- or GST-tagged ABI1
ABI1 [3] = target: T2, ABI1; assay: Ser/Thr phosphatase assay, single dose […]; parameters: His-ABI1

IC50 (ABI1 [1]): 54 ± 8 µM
Compound: NCCOc1cc(C(=O)Nc2cc(OCCN)c3ccccc3n2)nc(C(=O)Nc2cc(OCCN)c3ccccc3n2)c1 [ZINC59151964, 4-(2-aminoethoxy)-N2,N6-bis[4-(2-aminoethoxy)-2-quinolinyl]-2,6-pyridinedicarboxamide]
Ser/Thr phosphatase assay at 100 μM compound; weaker than on ABI1 (ABI2): ZINC59151964 is more efficient against ABI1 than ABI2

% inhibition at 100 μM (ABI1 [2]): 42.6
Compound: ZINC04545840

Compound: COC(=O)c1ccccc1NC(=O)Nc1cc(NC(=O)c2ccc(F)cc2)ccc1N1CCCC1 [ZINC33009768]
Ser/Thr phosphatase assay, single dose 100 μM (ABI1 [3]): Only two molecules ZINC33009768 and ZINC09438755 were found to have significant inhibitory activity

Compound: COc1cccc(-n2cc(C(=O)Nc3cc(C)ccc3OC)c3ccccc3c2=O)c1 [ZINC09438755]
Ser/Thr phosphatase assay, single dose 100 μM (ABI1 [3]): Only two molecules ZINC33009768 and ZINC09438755 were found to have significant inhibitory activity
